Series [1] relates to passive cutaneous anaphylaxis (PCA). Description: Effect on passive cutaneous anaphylaxis (PCA). The conditions noted are these: 1 hour prior to antigen challenge, rat. Format: in vivo, male Wister rats. The procedure:
(1) Effect on passive cutaneous anaphylaxis (PCA)
A serum containing the homocytotropic antibody was intracutaneously injected at four points of the shaven back of the male Wister rats weighing 180 to 200 g. Fourty-eight hours after the injection, a physiological saline containing 2.0 mg of DNP-As and 2.5 mg of Evans Blue to induce response, and the rats were dehematized to death in 30 minutes. […] The present compounds were administered to the rats 1 hour prior to the antigen challenge.

Series [2] is described as follows: Acute toxicity test. The following applies: mouse, in vivo, ip; male ddy mice, intraperitoneal, solution in physiological saline, up-down method. The procedure: Male ddy mice weighing about 20 g were used. A solution of the compound in physiological saline was injected intraperitoneally. The dose lethal to 50% of mice was determined by the up-down method.

Usually inhibition in vivo stands for the percentage by which the read-out fell short of the control. A lower inhibition in vivo goes with a response near the control. In general, LD50 refers to the dose at which mortality reaches 50%. As to `C[S+](C)CCC(=O)Nc1ccc(OCC(O)CO)cc1.Cc1ccc(S(=O)(=O)[O-])cc1` (centres unmarked) [Compound 4, 2-{4-(2,3-dihydroxypropoxy)phenylcarbamoyl}ethyldimethylsulfonium p-toluenesulfonate], the inhibition in vivo at 50 mg/kg in series [1] came to 48.8%. The compound further showed an LD50 in series [2] of 1040 mg/kg.

Compound `COCC(O)COc1ccc(NC(=O)CC[S+](C)C)cc1.Cc1ccc(S(=O)(=O)[O-])cc1` (centres unmarked) [Compound 7, 2-{4-(2-hydroxy-3-methoxypropoxy)phenylcarbamoyl}ethyldimethylsulfonium p-toluenesulfonate] registered an inhibition in vivo at 100 mg/kg in series [1] of 57%. This compound also registered an LD50 in series [2] of 359 mg/kg.

In series [1], `CCOCC(O)COc1ccc(NC(=O)CC[S+](C)C)cc1` (centres unmarked) [Compound 8] gave an inhibition in vivo at 20 mg/kg of 57%. Besides, the LD50 in series [2] is 254 mg/kg.

As for `CCCOCC(O)COc1ccc(NC(=O)CC[S+](C)C)cc1` (centres unmarked) [Compound 10], in series [1], the inhibition in vivo at 100 mg/kg came to 47%. The compound further came in with an LD50 in series [2] of 171 mg/kg.

Compound `C[S+](C)CCC(=O)Nc1ccc(OCC(O)COC2CCCCC2)cc1` (centres unmarked) [Compound 17] displayed an inhibition in vivo at 100 mg/kg in series [1] of 47%. The LD50 in series [2] is 93.6 mg/kg.

For the compound `C[S+](C)CCC(=O)Nc1ccc(OCC(O)COc2ccccc2)cc1` (centres unmarked) [Compound 18], the inhibition in vivo at 100 mg/kg in series [1] came to 34%. Further, in series [2], the LD50 came out at 112 mg/kg.

The compound `COCC(COc1ccc(NC(=O)CC[S+](C)C)cc1)OC` (centres unmarked) [Compound 19] came in with an inhibition in vivo at 10 mg/kg in series [1] of 51.6%. In series [2], this compound gave an LD50 of 254 mg/kg.

In series [1], `CCOCC(COc1ccc(NC(=O)CC[S+](C)C)cc1)OCC` (centres unmarked) [Compound 20] had an inhibition in vivo at 50 mg/kg of 35.1%. The compound also displayed a 50% lethal dose (LD50) in series [2] of 179 mg/kg.

`CCOCC(COc1ccc(NC(=O)CC[S+](C)C)cc1)OC(C)=O` (centres unmarked) [Compound 25] returned an inhibition in vivo at 100 mg/kg in series [1] of 63.6%. This compound also returned an LD50 in series [2] of 233 mg/kg.

Regarding `CCCOCC(COc1ccc(NC(=O)CC[S+](C)C)cc1)OCCC` (centres unmarked) [Compound 29], the inhibition in vivo at 50 mg/kg in series [1] stood at 46.2%. In addition, the LD50 in series [2] turned out to be 75.2 mg/kg.

With `CC(=O)OCC(COc1ccc(NC(=O)CC[S+](C)C)cc1)OC(C)=O` (centres unmarked) [Compound 32], the inhibition in vivo at 10 mg/kg in series [1] was 47%. This compound also gave an LD50 in series [2] of 366 mg/kg.

Consider `C[S+](C)CCOc1ccccc1OCC(O)CO.Cc1ccc(S(=O)(=O)[O-])cc1` (centres unmarked) [Compound 40, 2-{2-(2,3-dihydroxypropoxy)phenoxy}ethyldimethylsulfonium p-toluenesulfonate], for which the inhibition in vivo at 200 mg/kg in series [1] came out at 53.2%. In series [2], the LD50 came out at 283 mg/kg.

Regarding `C[S+](C)CCOc1cccc(OCC(O)CO)c1` (centres unmarked) [Compound 42], the inhibition in vivo at 200 mg/kg in series [1] was 58.4%. The LD50 in series [2] was found to be 231 mg/kg.

`C[S+](C)CCOc1ccc(OCC(O)CO)cc1` (centres unmarked) [Compound 44] had an inhibition in vivo at 200 mg/kg in series [1] of 57%. This compound registered an LD50 in series [2] of 352 mg/kg.

`COCC(O)COc1ccc(OCC[S+](C)C)cc1.Cc1ccc(S(=O)(=O)[O-])cc1` (centres unmarked) [Compound 45, 2-{4-(2-hydroxy-3-methoxypropoxy)phenoxy}ethyldimethylsulfonium p-toluenesulfonate] came in with an inhibition in vivo at 200 mg/kg in series [1] of 59%. The compound further yielded a 50% lethal dose (LD50) in series [2] of 302 mg/kg.

Regarding `CCOCC(O)COc1ccc(OCC[S+](C)C)cc1` (centres unmarked) [Compound 46], in series [1], testing at 100 mg/kg gave an inhibition in vivo of 64.8%.

In series [1], `CCCOCC(O)COc1ccc(OCC[S+](C)C)cc1` (centres unmarked) [Compound 47] came in with an inhibition in vivo at 50 mg/kg of 39.2%. Besides, the LD50 in series [2] is 293 mg/kg.

Take `CCOCCOCC(O)COc1ccc(OCC[S+](C)C)cc1` (centres unmarked) [Compound 48]: testing at 20 mg/kg in series [1] gave an inhibition in vivo of 48%. This compound showed an LD50 in series [2] of 302 mg/kg.

For the compound `C[S+](C)CCOc1ccc(OCC(O)COCC2CCCO2)cc1` (centres unmarked) [Compound 49], in series [1], testing at 20 mg/kg gave an inhibition in vivo of 42.5%. The compound further had an LD50 in series [2] of 221 mg/kg.

In series [1], `C[S+](C)CCOc1ccc(OCC(O)COc2ccccc2)cc1.Cc1ccc(S(=O)(=O)[O-])cc1` (centres unmarked) [Compound 51, 2-{4-(2-hydroxy-3-phenoxypropoxy)phenoxy}ethyldimethylsulfonium p-toluenesulfonate] came in with an inhibition in vivo at 100 mg/kg of 56.7%. The compound further had an LD50 in series [2] of 150 mg/kg.

`CCOCC(COc1ccc(OCC[S+](C)C)cc1)OCC` (centres unmarked) [Compound 52] registered an inhibition in vivo at 100 mg/kg in series [1] of 53.3%. The compound also returned an LD50 in series [2] of 132 mg/kg.

In series [1], `C[S+](C)CCOc1ccc(OCC(O)COC(N)=O)cc1` (centres unmarked) [Compound 54] registered an inhibition in vivo at 20 mg/kg of 51.8%. In series [2], this compound had an LD50 of 327 mg/kg.

Consider `CC(=O)OCC(COc1ccc(OCC[S+](C)C)cc1)OC(C)=O` (centres unmarked) [Compound 55], for which, in series [1], at 50 mg/kg the inhibition in vivo was 55.2%. This compound also returned an LD50 in series [2] of 291 mg/kg.

`C[S+](C)CCOc1ccc(OCC(COC(=O)c2ccccc2)OC(=O)c2ccccc2)cc1` (centres unmarked) [Compound 56] registered an inhibition in vivo at 100 mg/kg in series [1] of 44.7%. Besides, the LD50 in series [2] was determined as 85 mg/kg.
